# Several values for one entry are separate records, joined by “and”; a condition that tells them apart may be missing. Equal entries are not always repeated. Where two headings read alike, the source gives them in different places.
# How the values were obtained:
# [1] = test system: PK-resistant PrP in N2a cells chronically infected with 22L prions; type: cell-based, mouse
# [2] = test system: PK-resistant PrP (PrP^Sc) in ScN2a-RML cells; type: cell-based, mouse; settings: read-out: EC50, effective concentration for 50% reduction of PrP^Sc levels in ScN2a-RML cells
# [3] = biological target: sigma-1 receptor (σ1R, Sigmar1) (Homo sapiens, UniProt Q99720); assay: biochemical; type: binding
# Chain of sigma-1 receptor (σ1R, Sigmar1) (Q99720 whole entry, species assumed): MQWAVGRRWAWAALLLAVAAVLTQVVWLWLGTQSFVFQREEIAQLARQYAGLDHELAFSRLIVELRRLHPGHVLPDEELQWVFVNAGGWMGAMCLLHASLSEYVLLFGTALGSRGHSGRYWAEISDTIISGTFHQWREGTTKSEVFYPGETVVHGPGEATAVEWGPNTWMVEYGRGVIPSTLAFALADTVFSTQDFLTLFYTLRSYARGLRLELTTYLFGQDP
# [4] = test system: PK-resistant PrP in Hrh1^0/0 cells
# [5] = test system: cultured hippocampal neurons exposed to purified RML PrP^Sc; type: cell-based
# [6] = biological target: sigma-2 receptor (σ2R, Tmem97) (Homo sapiens, UniProt Q5BJF2); assay: biochemical; type: binding
# Chain of sigma-2 receptor (σ2R, Tmem97) (Q5BJF2 whole entry, species assumed): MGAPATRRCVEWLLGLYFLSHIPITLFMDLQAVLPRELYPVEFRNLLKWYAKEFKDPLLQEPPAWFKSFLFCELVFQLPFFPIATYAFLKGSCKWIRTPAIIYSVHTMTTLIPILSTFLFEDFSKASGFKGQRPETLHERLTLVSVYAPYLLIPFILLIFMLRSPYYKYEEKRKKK
# [7] = test system: ScN2a-RML cells
# [8] = test system: PK-resistant PrP in Sigmar1 + Tmem97 KO cells; type: cell-based, mouse
# [9] = test system: total PrP (PrP^C) in uninfected N2a cells; type: cell-based, mouse
# [10] = in vitro; settings: mouse
# [11] = cited from earlier work
# [12] = test system: PK-resistant PrP in Rosa26-targeted ScN2a cells; type: cell-based, mouse
# [13] = test system: seeding activity of RML prions on recombinant bank vole PrP; type: biochemical; settings: 2× the EC50 (79 μM)
smiles,measurement,setting,value
CN1CCN(CCc2ccc(Cl)c(Cl)c2)CC1 [BD1063],Levels of PK-resistant PrP relative to DMSO treatment,[1],63.3 ± 1.2%
same,EC50,[2],12.3 µM
same,Selectivity for σ1R (σ1R/σ2R),[3],σ1R (45.7 x)
same,Ki,[3]; read-out: Kiσ1R,0.0027 µM
same,Levels of PK-resistant PrP relative to DMSO-treated controls,[4],42.6 ± 6.7%
same,Mean number of dendritic spines/μm,[5],0.69 ± 0.03 spines/μm and 0.63 ± 0.03 spines/μm
same,"[SRA]min, minimum concentration capable of preventing hippocampal spine retraction",[5],1 µM
same,Ki,[6]; read-out: Kiσ2R,0.123 µM
same,CC50,[7],> 50 µM
same,"TI, therapeutic index (LC50/EC50)",[7],>4.1
same,Levels of PK-resistant PrP relative to DMSO-treated controls,[8],60.3 ± 4.0%
same,Levels of total PrP compared to DMSO treatment,[9]; 12.3 μM,85.8 ± 4.4%
"CN(C)CC1CCOC1(c1ccccc1)c1ccccc1 (stereo not drawn) [ANAVEX2–73, Blarcamesine]",Ki,[3],0.442 µM
same,Selectivity for σ1R (σ1R/σ2R),[3],σ1R (4.5 x)
same,Levels of PK-resistant PrP relative to DMSO-treated controls,[4],25.7 ± 6.2%
same,CC50,[10],> 50 µM
same,Ki,[6],2.03 µM
same,"TI, therapeutic index (LC50/EC50)",[7]; mouse,>1.3
same,Tolerability in phase II trials,[11]; Alzheimer’s and Parkinson’s diseases,well tolerated
same,Levels of PK-resistant PrP relative to DMSO-treated controls,[12],70.4 ± 1.1% and 42.6 ± 1.7%
same,Levels of PK-resistant PrP relative to DMSO-treated controls,[8]; 39.5 μM,57.9 ± 9.0%
same,Lag phase in RT-QuIC,[13],slight increase in the lag phase
CCCCc1oc2ccccc2c1C(=O)c1cc(I)c(OCCN(CC)CC)c(I)c1 [amiodarone],Ki,[6],0.171 µM
"COc1ccc(CCN2CCN(CCCc3ccccc3)CC2)cc1OC [SA 4503, Cutamesine]",EC50,[2],27.2 µM
same,Ki,[6]; read-out: Kiσ2R,0.0175 µM
same,CC50,[7],> 50 µM
same,Tolerability in phase II trial,[11]; ischemic stroke,well tolerated
"Cc1ccccc1NC(=N)Nc1ccccc1C [DTG, ditolylguanidine]",CC50,[10],> 50 µM
CCCN1CCC=C(c2cc(-c3ccc(C)cc3)no2)C1 [PD 144418],EC50,[1]; read-out: EC50 against 22L prions,12.6 µM
same,EC50,[2],5.2 µM
same,Selectivity for σ1R (σ1R/σ2R),[3],σ1R (319.1 x)
same,Ki,[3]; read-out: Kiσ1R,0.0011 µM
same,"[SRA]min, minimum concentration capable of preventing hippocampal spine retraction",[5],10 µM
same,Ki,[6]; read-out: Kiσ2R,0.351 µM
same,CC50,[7],> 22 µM
same,"TI, therapeutic index (LC50/EC50)",[7],>4.2
same,Levels of PK-resistant PrP relative to DMSO-treated controls,[12],81.1 ± 5.0%
same,Levels of PK-resistant PrP relative to DMSO-treated controls,[8],56.6 ± 5.8%
same,Levels of total PrP compared to DMSO treatment,[9],97.5 ± 4.8%
CN(C)CCN(C)CCc1ccc(Cl)c(Cl)c1 [BD1047],EC50,[2],19 µM
same,Mean number of dendritic spines/μm,[5],0.74 ± 0.02 spines/μm and 0.78 ± 0.04 spines/μm
same,"[SRA]min, minimum concentration capable of preventing hippocampal spine retraction",[5],0.5 µM
same,Ki,[6]; read-out: Kiσ2R,0.013 µM
same,CC50,[7],> 25 µM
same,Levels of total PrP compared to DMSO treatment,[9]; 19 μM,94.9 ± 0.9%
C[C@@H]1CN(CCCn2c3ccccc3c3ccccc32)C[C@H](C)N1 [rimcazole],Mean number of dendritic spines/μm,[5],0.86 ± 0.02 spines/μm and 0.82 ± 0.02 spines/μm
same,"[SRA]min, minimum concentration capable of preventing hippocampal spine retraction",[5],0.5 µM
same,CC50,[10],10 µM
same,Ki,[6],0.0496 µM
OC(CCCN1CCN(c2ncc(F)cn2)CC1)c1ccc(F)cc1 (stereo not drawn) [BMY-14802],CC50,[10],> 50 µM
O=C(CCCN1CCC(O)(c2ccc(Cl)cc2)CC1)c1ccc(F)cc1 [haloperidol],Mean number of dendritic spines/μm,[5],0.85 ± 0.03 spines/μm and 0.73 ± 0.04 spines/μm
same,Levels of total PrP compared to DMSO treatment,[9],92.0 ± 3.5%
COc1cccc2c1CCCC2CCCN1CCN(C2CCCCC2)CC1 (stereo not drawn) [PB-28],EC50,[2],5.1 µM
same,"[SRA]min, minimum concentration capable of preventing hippocampal spine retraction",[5],0.1 µM
same,CC50,[7],7.8 µM
same,Levels of total PrP compared to DMSO treatment,[9],85.3 ± 3.4%
CC(C)=CCN1CC[C@]2(C)c3cc(O)ccc3C[C@H]1[C@H]2C [(+)-pentazocine],CC50,[10],> 50 µM

# Source: publication PMC12172621 (ACS chemical neuroscience, 2024)
